Results reported in PubChem BioAssay (NCI).
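Assay format: 96-well plates, 48-hour exposure. TGI marks complete inhibition of growth.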

Columns and labels:
Assay in all cases: growth of human tumour cells (NCI), 48 h
[1] = tested on: DLD-1 colon
[2] = tested on: UACC-257 melanoma
[3] = tested on: EKVX NSCLC
[4] = tested on: MALME-3M melanoma
[5] = tested on: OVCAR-3 ovarian
[6] = tested on: NCI-H460 lung
[7] = tested on: SNB-19 CNS
[8] = tested on: NCI-H522 lung
[9] = tested on: A498 renal
[10] = tested on: MOLT-4 leukemia
[11] = tested on: OVCAR-8 ovarian
[12] = tested on: XF 498 CNS
[13] = tested on: OVCAR-4 ovarian
[14] = tested on: DMS 273 small cell lung
[15] = tested on: 786-0 renal
[16] = tested on: OVCAR-5 ovarian
[17] = tested on: UO-31 renal
[18] = tested on: SK-OV-3 ovarian
[19] = tested on: HCT-116 colon
[20] = tested on: SN12C renal
[21] = tested on: TK-10 renal
[22] = tested on: IGROV1 ovarian
[23] = tested on: NCI-H23 lung
[24] = tested on: ACHN renal
[25] = tested on: KM12 colon
[26] = tested on: U251 CNS
[27] = tested on: SF-295 CNS
[28] = tested on: UACC-62 melanoma
[29] = tested on: M19-MEL melanoma
[30] = tested on: SNB-78 CNS
[31] = tested on: A549 NSCLC
[32] = tested on: RXF 393 renal
[33] = tested on: HCT-15 colon
[34] = tested on: SK-MEL-5 melanoma
[35] = tested on: LXFL 529 NSCLC
[36] = tested on: K-562 leukemia
[37] = tested on: SNB-75 CNS
[38] = tested on: CCRF-CEM leukemia
[39] = tested on: SK-MEL-2 melanoma
[40] = tested on: CAKI-1 renal
[41] = tested on: SF-268 CNS
[42] = tested on: RPMI-8226 leukemia
[43] = tested on: HL-60(TB) leukemia
[44] = tested on: DMS 114 small cell lung
[45] = tested on: COLO 205 colon
[46] = tested on: HOP-62 NSCLC
[47] = tested on: SF-539 CNS
[48] = tested on: LOX IMVI melanoma
[49] = tested on: MCF7 breast
[50] = tested on: MDA-MB-231 breast
[51] = tested on: HT29 colon
[52] = tested on: HOP-92 NSCLC
[53] = tested on: NCI-H226 lung
[54] = tested on: HS 578T breast
[55] = tested on: HCC-2998 colon
[56] = tested on: NCI/ADR-RES ovarian
[57] = tested on: PC-3 prostate
[58] = tested on: MDA-MB-435
[59] = tested on: SR leukemia
[60] = tested on: MDA-N
[61] = tested on: SK-MEL-28 melanoma
[62] = tested on: BT-549 breast
[63] = tested on: M14 melanoma
[64] = tested on: DU-145 prostate
[65] = tested on: T-47D breast
[66] = tested on: SW-620 colon

Question: Which results are given for CC(=O)O[C@H]1C(=O)[C@@]2(C)C(C(OC(=O)c3ccccc3)[C@]3(O)CC(OC(=O)C(O)C(NC(=O)c4ccc(C)cc4)c4ccccc4)C(C)=C1C3(C)C)[C@]1(OC(C)=O)CO[C@@H]1C[C@@H]2O (some centres undefined)?
Answer: TGI [1]: 15.4 µM; TGI [2]: > 25 µM; TGI [3]: > 25 µM; TGI [4]: 11.5 µM; TGI [5]: < 0.0025 µM; TGI [6]: > 25 µM; TGI [7]: 16.7 µM; TGI [8]: < 0.0025 µM; TGI [9]: 14.1 µM; TGI [10]: 7.39 µM; TGI [11]: > 25 µM; TGI [12]: 0.0201 µM; TGI [13]: > 25 µM; TGI [14]: 3.25 µM; TGI [15]: > 25 µM; TGI [16]: 3.98 µM; TGI [17]: 9.23 µM; TGI [18]: 0.0284 µM; TGI [19]: 0.411 µM; TGI [20]: > 25 µM; TGI [21]: 9.47 µM; TGI [22]: 0.101 µM; TGI [23]: > 25 µM; TGI [24]: > 25 µM; TGI [25]: 19.8 µM; TGI [26]: > 25 µM; TGI [27]: 0.107 µM; TGI [28]: 7.44 µM; TGI [29]: 4.23 µM; TGI [30]: > 25 µM; TGI [31]: > 25 µM; TGI [32]: 0.143 µM; TGI [33]: 3.29 µM; TGI [34]: 16.8 µM; TGI [35]: > 25 µM; TGI [36]: 5.77 µM; TGI [37]: 0.0486 µM; TGI [38]: > 25 µM; TGI [39]: 0.0141 µM; TGI [40]: 11.1 µM; TGI [41]: > 25 µM; TGI [42]: 6.77 µM; TGI [43]: 3.35 µM; TGI [44]: < 0.0025 µM; TGI [45]: 0.00736 µM; TGI [46]: 14.1 µM; TGI [47]: 0.0119 µM; TGI [48]: 7.77 µM

Question: What does the source list for CCOC(=O)CCC(NC(=O)c1ccc(OCc2nc3ccccc3n3cccc23)cc1)C(=O)OCC (centres undefined)?
Answer: TGI [49]: > 100 µM; TGI [2]: > 100 µM; TGI [3]: > 100 µM; TGI [50]: > 100 µM; TGI [51]: > 100 µM; TGI [4]: > 100 µM; TGI [5]: > 100 µM; TGI [52]: > 100 µM; TGI [6]: > 100 µM; TGI [7]: > 100 µM; TGI [8]: 69.3 µM; TGI [9]: > 100 µM; TGI [10]: > 100 µM; TGI [11]: > 100 µM; TGI [53]: > 100 µM; TGI [54]: > 100 µM; TGI [55]: > 100 µM; TGI [13]: > 100 µM; TGI [15]: > 100 µM; TGI [16]: > 100 µM; TGI [56]: > 100 µM; TGI [17]: > 100 µM; TGI [18]: > 100 µM; TGI [19]: > 100 µM; TGI [20]: > 100 µM; TGI [21]: > 100 µM; TGI [22]: > 100 µM; TGI [23]: > 100 µM; TGI [57]: > 100 µM; TGI [24]: > 100 µM; TGI [25]: > 100 µM; TGI [26]: > 100 µM; TGI [27]: > 100 µM; TGI [28]: > 100 µM; TGI [58]: > 100 µM; TGI [59]: > 100 µM; TGI [31]: > 100 µM; TGI [32]: > 100 µM; TGI [60]: > 100 µM; TGI [33]: > 100 µM; TGI [61]: > 100 µM; TGI [34]: > 100 µM; TGI [62]: > 100 µM; TGI [63]: > 100 µM; TGI [36]: > 100 µM; TGI [37]: > 100 µM; TGI [38]: > 100 µM; TGI [39]: > 100 µM; TGI [40]: > 100 µM; TGI [64]: > 100 µM; TGI [41]: > 100 µM; TGI [65]: > 100 µM; TGI [43]: > 100 µM; TGI [45]: > 100 µM; TGI [46]: > 100 µM; TGI [47]: > 100 µM; TGI [48]: > 100 µM; TGI [66]: > 100 µM

Question: COc1ccc(C(c2ccccc2)C(C)C(=O)c2c(C)cc(C)cc2C)cc1 (centres undefined) was tested. Which TGI [51] did it give?
Answer: Its TGI is over 100 µM.

Question: And the TGI [4]?
Answer: The TGI was over 100 µM.

Question: What about the TGI [8] of the same compound?
Answer: Its TGI is over 100 µM.

Question: What about the TGI [29] of the same compound?
Answer: The TGI was over 100 µM.

Question: And the TGI [36]?
Answer: The TGI was over 100 µM.

Question: What about the TGI [42] of the same compound?
Answer: Its TGI is over 100 µM.

Question: For N#CC1=C(N)OC(c2ccc([N+](=O)[O-])cc2)C1(C#N)C#N (centres undefined), which TGI [49] is on record?
Answer: Its TGI is 42.4 µM.

Question: And the TGI [2]?
Answer: Its TGI is 26.5 µM.

Question: What about the TGI [3] of the same compound?
Answer: Its TGI is 39.6 µM.

Question: And the TGI [50]?
Answer: The TGI was 30.4 µM.

Question: What about the TGI [51] of the same compound?
Answer: The TGI was 22.9 µM.

Question: And the TGI [4]?
Answer: The TGI was 24.1 µM.

Question: What about the TGI [52] of the same compound?
Answer: The TGI was 21.9 µM.

Question: And the TGI [7]?
Answer: Its TGI is over 53.2 µM.

Question: And the TGI [8]?
Answer: Its TGI is 17.8 µM.

Question: What about the TGI [9] of the same compound?
Answer: Its TGI is 27.8 µM.

Question: And the TGI [10]?
Answer: The TGI was 63.3 µM.

Question: And the TGI [11]?
Answer: Its TGI is 32.3 µM.

Question: And the TGI [53]?
Answer: The TGI was 41.5 µM.

Question: And the TGI [54]?
Answer: The TGI was 64.9 µM.

Question: What about the TGI [55] of the same compound?
Answer: Its TGI is 23.5 µM.

Question: What about the TGI [13] of the same compound?
Answer: The TGI was 33.7 µM.

Question: What about the TGI [15] of the same compound?
Answer: Its TGI is 25 µM.

Question: And the TGI [16]?
Answer: The TGI was 41.8 µM.

Question: And the TGI [56]?
Answer: Its TGI is 51.7 µM.

Question: What about the TGI [17] of the same compound?
Answer: The TGI was 11.5 µM.

Question: And the TGI [18]?
Answer: Its TGI is over 100 µM.

Question: And the TGI [19]?
Answer: The TGI was 34.8 µM.

Question: And the TGI [20]?
Answer: Its TGI is 32.2 µM.

Question: And the TGI [21]?
Answer: Its TGI is 26.7 µM.

Question: What about the TGI [22] of the same compound?
Answer: The TGI was 31.1 µM.

Question: What about the TGI [23] of the same compound?
Answer: The TGI was 32.7 µM.

Question: And the TGI [57]?
Answer: The TGI was 34.7 µM.

Question: What about the TGI [24] of the same compound?
Answer: Its TGI is 23.8 µM.

Question: And the TGI [25]?
Answer: The TGI was over 48.4 µM.

Question: And the TGI [26]?
Answer: Its TGI is over 78.2 µM.

Question: And the TGI [27]?
Answer: Its TGI is over 71.3 µM.

Question: What about the TGI [28] of the same compound?
Answer: The TGI was 24.3 µM.

Question: And the TGI [58]?
Answer: The TGI was over 50.4 µM.

Question: And the TGI [59]?
Answer: The TGI was 41.7 µM.

Question: What about the TGI [31] of the same compound?
Answer: The TGI was over 93.3 µM.

Question: What about the TGI [32] of the same compound?
Answer: The TGI was 21 µM.

Question: And the TGI [60]?
Answer: Its TGI is 24.6 µM.

Question: And the TGI [33]?
Answer: Its TGI is 27.4 µM.

Question: And the TGI [61]?
Answer: Its TGI is 26.9 µM.

Question: What about the TGI [34] of the same compound?
Answer: The TGI was 31.9 µM.

Question: And the TGI [62]?
Answer: Its TGI is 33.1 µM.

Question: What about the TGI [63] of the same compound?
Answer: Its TGI is 38.9 µM.

Question: And the TGI [36]?
Answer: Its TGI is over 100 µM.

Question: And the TGI [37]?
Answer: Its TGI is 44.6 µM.

Question: What about the TGI [38] of the same compound?
Answer: The TGI was 43.3 µM.

Question: What about the TGI [39] of the same compound?
Answer: The TGI was 23 µM.

Question: And the TGI [40]?
Answer: The TGI was 13 µM.

Question: And the TGI [64]?
Answer: The TGI was 32.1 µM.

Question: And the TGI [41]?
Answer: The TGI was over 54.3 µM.

Question: And the TGI [65]?
Answer: Its TGI is 43.2 µM.

Question: And the TGI [42]?
Answer: The TGI was 18.7 µM.

Question: And the TGI [43]?
Answer: The TGI was 7.84 µM.

Question: What about the TGI [45] of the same compound?
Answer: Its TGI is 16.6 µM.

Question: And the TGI [46]?
Answer: Its TGI is over 53 µM.

Question: What about the TGI [47] of the same compound?
Answer: Its TGI is 32.1 µM.

Question: What about the TGI [48] of the same compound?
Answer: Its TGI is 21.6 µM.

Question: What about the TGI [66] of the same compound?
Answer: Its TGI is 33.9 µM.
